Experimental data published in patent US20250108007A1, “LIPID COMPOUND AND LIPID NANOPARTICLE COMPOSITION” (SUZHOU ABOGEN BIOSCIENCES CO., LTD., priority 2021, published 2025).

What was measured:
female ICR mice = experiment: hEPO mRNA lipid nanoparticles in mice, serum EPO by ELISA; format: in vivo; conditions: hEPO mRNA LNP, 0.5 mg/kg, tail vein injection, blood e.g. 6 hours after administration, relative to MC3 LNP positive control
Experimental: Lipid nanoparticles including human erythropoietin (hEPO) mRNA encapsulated by compound in the following table were administered at a dose of 0.5 mg/kg to female ICR mice at 6-8 weeks of age (Xipuer-Bikai, Shanghai) via tail vein injection. Mouse blood samples were taken at specific time points (e.g., 6 hours) after administration. In addition to the above test groups, the lipid nanoparticles including dilinoleylmethyl-4-dimethylaminobutyrate (DLin-MC3-DMA, commonly abbreviated as MC3) encapsulated hEPO mRNA were administered at the same dose to mice of similar age and sex as positive controls.
After the last sampling time point, the mice were euthanized by excess CO2. Serum was separated from whole blood by centrifugation at 5,000 g for 10 minutes at 4° C., snap frozen and stored at −80° C. for analysis. ELSA analysis was performed using a commercially available kit (DEP00, R&D system) according to the manufacturer instructions.
The following table lists the characteristics of the tested lipid nanoparticles, including the expression levels measured from the test group above MC3.

[1] = Size and polydispersity of lipid nanoparticles by dynamic light scattering; format: physicochemical; conditions: LNP cationic lipid/DSPC/cholesterol/PEG-lipid 50:10:38.5:1.5 with mRNA
Experimental: (§1) Briefly, the cationic lipid, DSPC, cholesterol and PEG-lipid provided by the present invention were dissolved in ethanol at a molar ratio of 50:10:38.5:1.5, and mRNA was diluted in a citrate buffer at 10-50 mM, pH=4. The ethanolic lipid solution and the mRNA aqueous solution were mixed at a volume ratio of 1:3 by a microfluidic device at a flow rate of 9-30 mL/min, so as to prepare LNP at a weight ratio of total lipid to mRNA of about 10:1 to 30:1. PBS for dialysis was used instead of ethanol, thereby removing ethanol. Finally, the lipid nanoparticles were filtered through a 0.2 μm sterile filter.
(§2) The size of the lipid nanoparticles was determined by dynamic light scattering using 173° backscatter detection mode of Malvern Zetasizer Nano ZS (Malvern UK). According to the description of the manufacturer, the encapsulation efficiency of the lipid nanoparticle was determined using a Quant-it Ribogreen RNA quantitative assay kit (Thermo Fisher Scientific, UK).

[2] = Encapsulation efficiency of lipid nanoparticles (Quant-it Ribogreen RNA assay); format: physicochemical; conditions: LNP cationic lipid/DSPC/cholesterol/PEG-lipid 50:10:38.5:1.5 with mRNA
Experimental: as §1, §2

Row | SMILES | EPO expression relative to MC3 (female ICR mice) | Polydispersity index (PDI) [1] | Size (nm) [1] | Encapsulation efficiency (EE %) [2]
1 | CCCCCCCCC(CCCCCCCC)COC(=O)CCCCCN(CCCCCC(=O)OCC(CCCCCCCC)CCCCCCCC)CC1(O)CCN(C(=O)CCCN(C)C)CC1 [Compound 1] | Not detected | 0.257 | 68.14 nm | 99.1%
2 | CCCCCCCCC(CCCCCCCC)COC(=O)CCCCCN(CCCCCC(=O)OCC(CCCCCCCC)CCCCCCCC)CC1(O)CCN(C)CC1 [Compound 2] | Not detected | 0.114 | 80.02 nm | 98.1%
3 | CCCCCCCCC(CCCCCCCC)COC(=O)CCCCCN(CCCCCC(=O)OCC(CCCCCCCC)CCCCCCCC)CC1(O)CCN(C(=O)CN(C)C)CC1 [Compound 3] | Not detected | 0.248 | 78.45 nm | 97.3%
4 | CCCCCCCCC(CCCCCCCC)COC(=O)CCCCCN(CCCCCC(=O)OCC(CCCCCCCC)CCCCCCCC)CC1(O)CCN(C(=O)CCCCN(C)C)CC1 [Compound 4] | Not detected | 0.28 | 55.63 nm | 98.4%
5 | CCCCCCCCC(CCCCCCCC)COC(=O)CCCCCN(CCCCCC(=O)OCC(CCCCCCCC)CCCCCCCC)CC1(O)CCN(CCC)CC1 [Compound 6] | A (A: ≥2) | 0.034 | 83.23 nm | 92.8%
6 | CCCCCCCCC(CCCCCCCC)COC(=O)CCCCCN(CCCCCC(=O)OCC(CCCCCCCC)CCCCCCCC)CCC(=O)N1CCC(O)(CN(C)C)CC1 [Compound 7] | Not detected | 0.073 | 43.78 nm | 97.6%
7 | CCCCCCCCC(CCCCCCCC)COC(=O)CCCCCN1CCC(O)(CN(CCCCCC(=O)OCC(CCCCCCCC)CCCCCCCC)C2CCC2)CC1 [Compound 8] | C (C: ≥0.1 and <1) | 0.16 | 54.23 nm | 93.7%
8 | CCCCCCCCC(CCCCCC)COC(=O)CCCCCN(CCCCCC(=O)OCC(CCCCCC)CCCCCCCC)CCCCCC(=O)N1CCC(O)(CN(C)C)CC1 (centres unmarked) [Compound 9] | Not detected | 0.212 | 35.26 nm | 97.6%
9 | CCCCCCCCC(CCCCCC)COC(=O)CCCCCN(CCCCCC(=O)OCC(CCCCCC)CCCCCCCC)CCN1CCC(O)(CN(C)CC)CC1 (centres unmarked) [Compound 10] | Not detected | 0.083 | 133.3 nm | 96.7%
10 | CCCCCCCCC(CCCCCC)COC(=O)CCCCCN(C)CC1(O)CCN(CCCCCC(=O)OCC(CCCCCC)CCCCCCCC)CC1 (centres unmarked) [Compound 11] | B (B: ≥1 and <2) | 0.045 | 86.19 nm | 96.8%
11 | CCCCCCCCC(CCCCCC)COC(=O)CCCCCN1CCC(O)(CN(CCCCCC(=O)OCC(CCCCCC)CCCCCCCC)C2CCCC2)CC1 (centres unmarked) [Compound 12] | C (C: ≥0.1 and <1) | 0.084 | 109.1 nm | 81.5%
12 | CCCCCCCCC(CCCCCC)COC(=O)CCCCCN1CCC(O)(CN(CCCCCC(=O)OCC(CCCCCC)CCCCCCCC)C2CCCCC2)CC1 (centres unmarked) [Compound 13] | C (C: ≥0.1 and <1) | 0.049 | 117.7 nm | 83.9%
13 | CCCCCCCCC(CCCCCC)COC(=O)CCCCCN(CCCCCC(=O)OCC(CCCCCC)CCCCCCCC)CCN1CCC(O)(CN(C)C)CC1 (centres unmarked) [Compound 14] | Not detected | 0.139 | 97.33 nm | 97.3%
14 | CCCCCCCCC(CCCCCC)CC(=O)OCC(CCCCN1CCC(O)(CN(C)C)CC1)COC(=O)CC(CCCCCC)CCCCCCCC (centres unmarked) [Compound 15] | Not detected | 0.06 | 53.67 nm | 94.3%
